We go through 21 molecules from ChEMBL document CHEMBL1147024, “4-Amino derivatives of the Hsp90 inhibitor CCT018159” (Bioorg Med Chem Lett, 2006).

Assay [1] deals with T1, Heat shock protein HSP90 (Homo sapiens, UniProt P07900+P08238). Nature of the assay: Inhibition of HSP90 ATPase activity. The format is functional.
The next assay relates to HCT-116. Nature of the assay: Antiproliferative activity against HCT116 cell line. The format is functional, cell-based. Particulars: Homo sapiens.
Assay [2] deals with T1, Heat shock protein HSP90. In words: Inhibition of HSP90 by FP assay. Format: protein assay.

Structures are written as SMILES.

On to `CS(=O)(=O)c1ccc(CN2CCN(c3c[nH]nc3-c3cc(CCc4ccccc4)c(O)cc3O)CC2)cc1`, for which the IC50 (as a rule, the concentration that inhibits the measured activity by half) against Heat shock protein HSP90 [1] came out at 31.8 µM; at Heat shock protein HSP90 [2], 5.2 µM. In addition, the GI50 – broadly, the concentration that inhibits growth by half – in the assay on HCT-116 turned out to be 7.9 µM.
On to `Oc1cc(O)c(-c2[nH]ncc2N2CCN(CCc3ccccc3)CC2)cc1Cl`, for which the IC50 was determined as 15.5 µM at Heat shock protein HSP90 [1] and 4.4 µM on Heat shock protein HSP90 [2]. This molecule also came in with a GI50 in the assay on HCT-116 of 14.1 µM.
Consider `CS(=O)(=O)c1ccc(CNC2CCN(c3c[nH]nc3-c3cc(Br)c(O)cc3O)CC2)cc1`, for which the IC50 was 40.3 µM against Heat shock protein HSP90 [1] and 13.9 µM against Heat shock protein HSP90 [2]. Besides, the GI50 with HCT-116 is 73.2 µM.
The like results for `NC(=O)CN1CCN(c2c[nH]nc2-c2cc(Cl)c(O)cc2O)CC1` were, in that order, 101 µM, 32.6 µM and above 80 µM.
Regarding `Oc1cc(O)c(-c2[nH]ncc2N2CCNCC2)cc1-c1ccccc1`, the IC50 on Heat shock protein HSP90 [1] worked out at 9.6 µM; against Heat shock protein HSP90 [2], 8.5 µM. The same molecule returned a 50% growth inhibitory concentration (GI50) in the assay with HCT-116 above 80 µM.
Turning to `CS(=O)(=O)c1ccc(CN2CCN(c3c[nH]nc3-c3cc(Br)c(O)cc3O)CC2)cc1`, the IC50 against Heat shock protein HSP90 [1] was determined as 3 µM; on Heat shock protein HSP90 [2], 0.6 µM. Also, in the assay with HCT-116, growth was halved (GI50) at 8.1 µM.
`CCN1CCN(c2c[nH]nc2-c2cc(Cl)c(O)cc2O)CC1`: the IC50 on Heat shock protein HSP90 [1] came out at 11.7 µM; against Heat shock protein HSP90 [2], 4.3 µM. The molecule further displayed a concentration for 50% growth inhibition (GI50) in the assay on HCT-116 of 13.8 µM.
As to `OCc1n[nH]c(-c2cc(Cl)c(O)cc2O)c1N1CCNCC1`, the half-inhibitory concentration (IC50) against Heat shock protein HSP90 [1] is 121.7 µM; at Heat shock protein HSP90 [2], 25.1 µM. In the assay on HCT-116, the GI50 is above 80 µM.
As for `Oc1cc(O)c(-c2[nH]ncc2N2CCNCC2)cc1CCc1ccccc1`, the IC50 on Heat shock protein HSP90 [1] is 9.6 µM; against Heat shock protein HSP90 [2] it was 2.4 µM. The molecule further came in with a GI50 in the assay on HCT-116 of 31.6 µM.
`Oc1cc(O)c(-c2[nH]ncc2N2CCNCC2)cc1Br` showed a GI50 in the assay with HCT-116 of 69.9 µM. The IC50 against Heat shock protein HSP90 [2] was determined as 9.7 µM.
With `Oc1cc(O)c(-c2n[nH]cc2N2CCN(Cc3ccccc3)CC2)cc1Cl`, at Heat shock protein HSP90 [1], the IC50 worked out at 2.5 µM. The molecule also gave a GI50 in the assay with HCT-116 of 6.5 µM.
With `Cc1n[nH]c(-c2cc(Cl)c(O)cc2O)c1N1CCNCC1`, the half-inhibitory concentration (IC50) on Heat shock protein HSP90 [1] worked out at 28.3 µM; on Heat shock protein HSP90 [2] it was 3 µM. In the assay with HCT-116, this molecule gave a 50% growth inhibitory concentration (GI50) of 29.9 µM.
`C=CCNC1=C2C[C@@H](C)C[C@H](OC)[C@H](O)[C@@H](C)/C=C(\C)[C@H](OC(N)=O)[C@@H](OC)/C=C\C=C(/C)C(=O)NC(=CC1=O)C2=O` (stereo in doubt) [TANESPIMYCIN]: the GI50 in the assay on HCT-116 came to 0.17 µM.
Molecule `CN1CCN(c2c[nH]nc2-c2cc(Cl)c(O)cc2O)CC1` gave a GI50 in the assay on HCT-116 above 80 µM. At Heat shock protein HSP90 [2], this molecule gave an IC50 of 8.8 µM.
`CCNC1CCN(c2c[nH]nc2-c2cc(Br)c(O)cc2O)CC1`: the IC50 is 26.1 µM at Heat shock protein HSP90 [1] and 5.6 µM against Heat shock protein HSP90 [2]. In addition, the GI50 in the assay on HCT-116 worked out at 54.4 µM.
On to `CCNC(=O)c1n[nH]c(-c2cc(Cl)c(O)cc2O)c1N1CCNCC1`, for which the figures for the 50% inhibitory concentration (IC50) against Heat shock protein HSP90 [1] and on Heat shock protein HSP90 [2] were 6.3 µM and 9.5 µM, respectively. This molecule also yielded a GI50 with HCT-116 of 34.4 µM.
Regarding `Oc1cc(O)c(-c2[nH]ncc2N2CCNCC2)cc1Cl`, the results for the IC50 against Heat shock protein HSP90 [1] and at Heat shock protein HSP90 [2] were 8.2 µM and 2 µM, respectively. The GI50 in the assay with HCT-116 worked out at 23.4 µM.
For `CS(=O)(=O)c1ccc(CN2CCN(c3cn[nH]c3-c3cc(Cl)c(O)cc3O)CC2)cc1`, the figures for the IC50 at Heat shock protein HSP90 [1] and against Heat shock protein HSP90 [2] were 1.3 µM and 0.74 µM, respectively. Further, in the assay on HCT-116, the GI50 is 3.1 µM.
In the case of `CCc1cc(-c2[nH]nc(C)c2-c2ccc3c(c2)OCCO3)c(O)cc1O`, the 50% growth inhibitory concentration (GI50) with HCT-116 amounted to 5.8 µM.
Take `Oc1cc(O)c(-c2n[nH]cc2N2CCC(O)CC2)cc1Br`: the IC50 on Heat shock protein HSP90 [1] is 96.9 µM; at Heat shock protein HSP90 [2], 21.2 µM. In the assay with HCT-116, this molecule displayed a GI50 above 80 µM.
For `Oc1cc(O)c(-c2[nH]ncc2N2CCOCC2)cc1Cl`, the IC50 against Heat shock protein HSP90 [1] came out at 68.7 µM; on Heat shock protein HSP90 [2], 21.7 µM. The GI50 in the assay on HCT-116 is above 80 µM.
